Data from patent US9034308B2, “Anti-sensitivity, anti-caries, anti-staining, anti-plaque ultra-mild oral hygiene agent” (RHODIA OPERATIONS, priority 2003, dated 2015).

Key:
[1] = Interaction with calcium phosphates (foaming); type: physicochemical; details: 1 Kg powder added to 1800 ml of 10% solution, pH ~7
Description: Disappearance of foaming was indicative of loss of surfactant from bulk solution. Increased hydrophobicity of the calcium phosphate was indicative of surfactant adsorption onto the solid particles.
A typical calcium based abrasive tooth paste formulation was prepared using dibasic calcium phosphate, dihydrate as the abrasive and conventional mixing techniques as shown below. […] This finding was in contrast to an earlier patent discussed above (U.S. Pat. No. 4,152,421) and was presumably so because of the strong interaction of the potassium dodecyl phosphate (1.2%) with the calcium phosphate abrasive.

[2] = 1% solution, in vitro; cited from earlier work
[3] = 14C labeling, in the presence of saliva; cited from earlier work

| Molecule | amount bonded to 40 mg HA [3] | other results |
| --- | --- | --- |
| CCCCCCCCCCCCOP(=O)([O-])[O-].[K+].[K+] [potassium dodecyl phosphate] | – | foaming of the solution after addition of dibasic calcium phosphate, dihydrate [1]: significantly reduced |
| dioctyl phosphate | – | rate of calcium demineralization on treated teeth [2]: lower rate of calcium demineralization |
| dodecyl-3 EO monoalkyl phosphate | 0.20 to 0.35 mg | – |
| hexadecyl-8 EO ethoxylate | < 0.05 mg | – |
